Results: patent publication US20090162495A1, “Derivatives of Di-Carbonyl Aromachemicals” (FLEXITRAL INC, priority 2005, published 2009)

How the values were obtained:
[1] = vapor pressure of the adduct; format: physicochemical; details: resulting in little or no odor
From the text: (§1) Diacetyl is known to form an adduct with sodium hydrogen sulfite [2-butanesulfonic acid, 2-hydroxy-3-oxo-, monosodium salt—CAS 13489-36-6]. See also French patent 2,845,903. This adduct is in equilibrium with the starting materials and, in practice, releases small amounts of diacetyl and sulfite continuously. The above-mentioned French patent discloses that the adduct is useful in hair care products as a straightening agent. The vapor pressure of the diacetyl adduct is negligible, thereby resulting in little or no odor. It is usually obtained and used in the form of a water-soluble salt, such as, e.g., an alkali metal (sodium) salt. Since it is water soluble, it can therefore be sprayed directly onto foodstuffs safely. The flavor imparted by the adduct is dominated by diacetyl, since at low concentrations, the sulfite taste and flavor is imperceptible.

[2] = water solubility of the adduct; format: physicochemical; details: water-soluble salt, e.g. alkali metal (sodium) salt
From the text: as §1

vapor pressure [1]: negligible | water solubility [2]: water soluble
Compound: CC(=O)C(C)(O)S(=O)(=O)[O-].[Na+] (centres unmarked) [diacetyl adduct, 2-butanesulfonic acid, 2-hydroxy-3-oxo-, monosodium salt]
